Results reported in patent US9834542B2, “LXR modulators” (BRISTOL-MYERS SQUIBB COMPANY, priority 2013, dated 2017).
pEC50: −log10 of the molar value.

Target: T1, LXRβ (Homo sapiens, UniProt P55055)
T1 construct: Co-transfection expression plasmids, comprising full-length LXRα (pCMX-h LXRα[…] or LXRβ (pCMX-hLXRβ)); expressed in transfected cells; host or cells: CV-1 African Green Monkey Kidney Cells
T1 sequence (P55055 1-460): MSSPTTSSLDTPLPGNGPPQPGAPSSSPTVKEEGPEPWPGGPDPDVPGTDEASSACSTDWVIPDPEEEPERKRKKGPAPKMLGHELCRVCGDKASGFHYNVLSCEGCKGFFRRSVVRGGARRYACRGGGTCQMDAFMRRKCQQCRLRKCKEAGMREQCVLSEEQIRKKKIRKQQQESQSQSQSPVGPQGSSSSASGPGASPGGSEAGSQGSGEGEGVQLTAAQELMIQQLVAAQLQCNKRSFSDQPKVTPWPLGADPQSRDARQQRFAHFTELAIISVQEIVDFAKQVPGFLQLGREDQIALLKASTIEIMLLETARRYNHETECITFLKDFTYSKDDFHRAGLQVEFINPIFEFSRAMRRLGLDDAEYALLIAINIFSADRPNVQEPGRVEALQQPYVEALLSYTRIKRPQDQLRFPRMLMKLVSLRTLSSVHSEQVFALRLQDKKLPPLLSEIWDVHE
T1 sequence (P19793 1-462 partner): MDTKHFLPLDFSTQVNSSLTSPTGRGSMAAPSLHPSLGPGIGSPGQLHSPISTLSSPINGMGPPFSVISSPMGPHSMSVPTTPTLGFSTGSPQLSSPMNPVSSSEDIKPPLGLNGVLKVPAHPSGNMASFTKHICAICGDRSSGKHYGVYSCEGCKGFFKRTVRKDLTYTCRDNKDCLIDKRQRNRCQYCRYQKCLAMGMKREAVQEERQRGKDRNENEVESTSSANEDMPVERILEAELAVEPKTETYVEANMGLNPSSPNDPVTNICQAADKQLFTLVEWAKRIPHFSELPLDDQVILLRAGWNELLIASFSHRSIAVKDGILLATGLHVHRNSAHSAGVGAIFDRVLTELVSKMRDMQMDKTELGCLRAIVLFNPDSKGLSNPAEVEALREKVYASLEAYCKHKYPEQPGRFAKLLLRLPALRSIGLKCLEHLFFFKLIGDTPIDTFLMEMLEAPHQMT
Test: Co-transfection assay (LXRE luciferase reporter), LXRβ
Format: cell-based
Settings: for pEC50: CV-1 cells transfected with pCMX-hLXRβ and LXREx1-Tk-Luciferase, 20 hours incubation; for Emax: LXRβ co-transfection, relative to high control 1-(2,4-difluorobenzyl)-2-oxo-6-(4-phenoxyphenyl)-4-(trifluoromethyl)-1,2-dihydropyridine-3-carbonitrile, read-out: % Efficacy
Outline: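 CV-1 cells transiently co-transfected with full-length human LXRβ (or LXRα), LXREx1-Tk-luciferase reporter and β-galactosidase control; compound added (10 μM final in single-point, 11-point ½-log curves, ≤0.5% DMSO) for 20 h at 37 °C. Luciferase read; EC50 from four-parameter fit, efficacy relative to reference agonist high control.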

| pEC50 | Emax | Compound |
| --- | --- | --- |
| 6.69 | 94% | Cc1nc(C(F)(F)F)cn1-c1ccc(-c2cccc(S(C)(=O)=O)c2)cc1-c1oc(CCN2CCCC2)nc1-c1ccc(OC(F)(F)F)cc1 [Example 620, 5-(4-(2-methyl-4-(trifluoromethyl)-1H-imidazol-1-yl)-3′-(methylsulfonyl)-[1,1′-biphenyl]-3-yl)-2-(2-(pyrrolidin-1-yl)ethyl)-4-(4-(trifluoromethoxy)phenyl)oxazole] |
| 5.94 | 29% | Cc1nc(-c2cc(-c3cccc(S(C)(=O)=O)c3)ccc2-n2cc(CO)nc2C)c(-c2ccc3c(c2)OC(F)(F)O3)o1 [Example 369, (1-(3-(5-(2,2-difluorobenzo[d][1,3]dioxol-5-yl)-2-methyloxazol-4-yl)-3′-(methylsulfonyl)biphenyl-4-yl)-2-methyl-1H-imidazol-4-yl)methanol] |
| 6.80 | 89% | Cc1ccc(-c2cnnn2-c2cc(-c3cc(F)c(CO)c(S(C)(=O)=O)c3)ccc2-n2cc(C(F)(F)F)nc2C)cc1 [Example 48, {3-fluoro-3′-[5-(4-methylphenyl)-1H-1,2,3-triazol-1-yl]-5-(methylsulfonyl)-4′-[2-methyl-4-(trifIuoromethyl)-1H-imidazol-1-yl]biphenyl-4-yl}methanol] |
| 6.94 | 87% | Cc1nc(C(F)(F)F)cn1-c1ccc(-c2cccc(S(=O)(=O)N(C)C)c2)cc1-c1ocnc1-c1ccc(OC(F)(F)F)cc1 [Example 358, N,N-dimethyl-4′-[2-methyl-4-(trifluoromethyl)-1H-imidazol-1-yl]-3′-(4-{4-[(trifluoromethyl)oxy]phenyl}-1,3-oxazol-5-yl)biphenyl-3-sulfonamide] |
| 5.94 | 32% | Cc1nc(C(F)(F)F)cn1-c1ccc(-c2cccc(S(C)(=O)=O)c2)cc1-c1nc(C(F)(F)F)cn1-c1ccc(Cl)nc1 [Example 642, 2-chloro-5-(2-(4-(2-methyl-4-(trifluoromethyl)-1H-imidazol-1-yl)-3′-(methylsulfonyl)biphenyl-3-yl)-4-(trifluoromethyl)-1H-imidazol-1-yl)pyridine] |
| 6.93 | 70% | Cc1nc(-c2cc(-c3cc(F)c(CO)c(S(C)(=O)=O)c3)ccc2-n2cc(C(F)(F)F)nc2C)c(-c2ccc(OC(CF)CF)c(F)c2)o1 [Example 407, (3′-(5-(4-(1,3-difluoropropan-2-yloxy)-3-fluorophenyl)-2-methyloxazol-4-yl)-3-fluoro-4′-(2-methyl-4-(trifluoromethyl)-1H-imidazol-1-yl)-5-(methylsulfonyl)biphenyl-4-yl)methanol] |
| 6.58 | 148% | Cc1nc(C(F)F)c(Cl)n1-c1ccc(-c2cc(F)c(CO)c(S(C)(=O)=O)c2)cc1-n1nncc1-c1ccc(OC(F)(F)F)cc1 [Example 173, {4′-[5-chloro-4-(difluoromethyl)-2-methyl-1H-imidazol-1-yl]-3-fluoro-5-(methylsulfonyl)-3′-(5-{4-[(trifluoromethyl)oxy]phenyl}-1H-1,2,3-triazol-1-yl)biphenyl-4-yl}methanol] |
| 6.70 | 89% | Cc1nc(C(F)(F)F)cn1-c1ccc(-c2ccc(CCO)c(S(C)(=O)=O)c2)cc1-n1nncc1-c1ccc(OC(F)(F)F)cc1 [Example 236, 2-(4′-(2-methyl-4-(trifluoromethyl)-1H-imidazol-1-yl)-3-(methylsulfonyl)-3′-(5-(4-(trifluoromethoxy)phenyl)-1H-1,2,3-triazol-1-yl)-[1,1′-biphenyl]-4-yl)ethanol] |
| 6.02 | 72% | Cc1nc(C2CC2)cn1-c1ccc(-c2cccc(S(C)(=O)=O)c2)cc1-n1nncc1-c1ccc(OC(F)(F)F)cc1 [Example 229, 1-(4-(4-cyclopropyl-2-methyl-1H-imidazol-1-yl)-3′-(methylsulfonyl)-[1,1′-biphenyl]-3-yl)-5-(4-(trifluoromethoxy)phenyl)-1H-1,2,3-triazole] |
| 6.39 | 55% | CCC(F)(F)c1cn(-c2ccc(-c3cccc(S(C)(=O)=O)c3)cc2-c2ocnc2-c2ccc(OC(F)(F)F)cc2)c(C)n1 [Example 364, 5-{4-[4-(1,1-difluoropropyl)-2-methyl-1H-imidazol-1-yl]-3′-(methylsulfonyl)biphenyl-3-yl}-4-{4-[(trifluoromethyl)oxy]phenyl}-1,3-oxazole] |
| 6.19 | 64% | Cc1nc(C(F)(F)F)cn1-c1ccc(-c2cc(Cl)c(CO)c(S(C)(=O)=O)c2)cc1-n1nncc1Cc1ccc(Cl)cc1 [Example 122, (3-chloro-3′-{5-[(4-chlorophenyl)methyl]-1H-1,2,3-triazol-1-yl}-5-(methylsulfonyl)-4′-[2-methyl-4-(trifluoromethyl)-1H-imidazol-1-yl]biphenyl-4-yl)methanol] |
| 6.61 | 121% | Cc1nc(C(F)(F)F)c(Cl)n1-c1ccc(-c2cc(Cl)c(CO)c(S(C)(=O)=O)c2)cc1-n1nncc1-c1ccc(OC(F)(F)F)cc1 [Example 60, {3-chloro-4′-[5-chloro-2-methyl-4-(trifluoromethyl)-1H-imidazol-1-yl]-5-(methylsulfonyl)-3′-(5-{4-[(trifluoromethyl)oxy]phenyl}-1H-1,2,3-triazol-1-yl)biphenyl-4-yl}methanol] |
| 5.51 | 60% | Cc1nc(C(F)F)cn1-c1ccc(-c2cccc(S(C)(=O)=O)c2)cc1-n1nncc1-c1ccccc1 [Example 171, 1-{4-[4-(difluoromethyl)-2-methyl-1H-imidazol-1-yl]-3′-(methylsulfonyl)biphenyl-3-yl}-5-phenyl-1H-1,2,3-triazole] |
| 5.71 | 57% | Cc1nc(C(F)(F)F)cn1-c1ccc(-c2cc(F)c(CO)c(S(C)(=O)=O)c2)c(Cl)c1-n1nncc1-c1ccc(Cl)cc1 [Example 102, {2′-chloro-3′-[5-(4-chlorophenyl)-1H-1,2,3-triazol-1-yl]-3-fluoro-5-(methylsulfonyl)-4′-[2-methyl-4-(trifluoromethyl)-1H-imidazol-1-yl]biphenyl-4-yl}methanol] |
| 7.08 | 43% | Cc1nc(-c2cc(-c3cc(F)c(CO)c(S(C)(=O)=O)c3)ccc2-n2cc(C(F)(F)F)nc2C)c(-c2ccccc2OC(F)F)o1 [Example 548, (3′-(5-(2-(difluoromethoxy)phenyl)-2-methyloxazol-4-yl)-3-fluoro-4′-(2-methyl-4-(trifluoromethyl)-1H-imidazol-1-yl)-5-(methylsulfonyl)-[1,1′-biphenyl]-4-yl)methanol] |
| 6.07 | 92% | Cc1nc(C(F)(F)F)cn1-c1ccc(-c2cccc(S(C)(=O)=O)c2)cc1-n1nncc1-c1ccc(Cl)cc1F [Example 39, 5-(4-chloro-2-fluorophenyl)-1-{3′-(methylsulfonyl)-4-[2-methyl-4-(trifluoromethyl)-1H-imidazol-1-yl]biphenyl-3-yl}-1H-1,2,3-triazole] |
| 6.29 | 64% | Cc1nc(C(F)(F)F)cn1-c1ccc(-c2cc(F)c(CO)c(S(C)(=O)=O)c2)cc1-c1oc(CCO)nc1-c1ccc(OC(F)(F)F)cc1 [Example 612, 2-(5-(3′-fluoro-4′-(hydroxymethyl)-4-(2-methyl-4-(trifluoromethyl)-1H-imidazol-1-yl)-5′-(methylsulfonyl)-[1,1′-biphenyl]-3-yl)-4-(4-(trifluoromethoxy)phenyl)oxazol-2-yl)ethanol] |
